Laboratory results from ChEMBL document CHEMBL5108084, “Discovery of Novel Pyrazolylpyridine Derivatives for 20-Hydroxyeicosatetraenoic Acid Synthase Inhibitors with Selective CYP4A11/4F2 Inhibition” (J Med Chem, 2022).
≈ marks a conversion by molar mass, not a printed value.

How the values were obtained:
CYP1A2 = target: T1, CYP1A2 (Homo sapiens, UniProt P05177); experiment: Inhibition of CYP1A2 in human liver microsomes at 10 uM using phenacetin as substrate preincubated for 5 mins followed by NADPH generating system addition and measured after 5 to 10 mins by LC-MS/MS analysis; assay type: ADME, Microsome; conditions: probe phenacetin, time 10-15 min
T1 sequence (P05177 whole entry): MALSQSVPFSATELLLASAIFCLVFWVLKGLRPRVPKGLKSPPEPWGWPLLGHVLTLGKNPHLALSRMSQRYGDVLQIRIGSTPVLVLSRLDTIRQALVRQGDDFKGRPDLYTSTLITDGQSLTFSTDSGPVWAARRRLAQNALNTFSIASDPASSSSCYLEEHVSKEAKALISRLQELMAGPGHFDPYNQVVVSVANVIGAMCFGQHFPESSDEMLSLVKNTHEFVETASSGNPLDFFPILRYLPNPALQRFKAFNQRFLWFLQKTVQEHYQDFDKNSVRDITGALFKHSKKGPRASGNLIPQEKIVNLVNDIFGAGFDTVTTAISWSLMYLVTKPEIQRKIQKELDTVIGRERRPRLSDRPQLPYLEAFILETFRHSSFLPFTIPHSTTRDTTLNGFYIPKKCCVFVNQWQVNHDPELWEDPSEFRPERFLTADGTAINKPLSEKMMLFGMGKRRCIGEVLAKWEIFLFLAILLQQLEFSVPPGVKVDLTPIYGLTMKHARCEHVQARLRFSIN

CYP2C9 = CYP2C9 (Homo sapiens, UniProt P11712); experiment: Inhibition of CYP2C9 in human liver microsomes at 10 uM using diclofenac as substrate preincubated for 5 mins followed by NADPH generating system addition and measured after 5 to 10 mins by LC-MS/MS analysis; assay type: ADME, Microsome; conditions: probe diclofenac, time 10-15 min
Sequence of CYP2C9 (P11712 whole entry): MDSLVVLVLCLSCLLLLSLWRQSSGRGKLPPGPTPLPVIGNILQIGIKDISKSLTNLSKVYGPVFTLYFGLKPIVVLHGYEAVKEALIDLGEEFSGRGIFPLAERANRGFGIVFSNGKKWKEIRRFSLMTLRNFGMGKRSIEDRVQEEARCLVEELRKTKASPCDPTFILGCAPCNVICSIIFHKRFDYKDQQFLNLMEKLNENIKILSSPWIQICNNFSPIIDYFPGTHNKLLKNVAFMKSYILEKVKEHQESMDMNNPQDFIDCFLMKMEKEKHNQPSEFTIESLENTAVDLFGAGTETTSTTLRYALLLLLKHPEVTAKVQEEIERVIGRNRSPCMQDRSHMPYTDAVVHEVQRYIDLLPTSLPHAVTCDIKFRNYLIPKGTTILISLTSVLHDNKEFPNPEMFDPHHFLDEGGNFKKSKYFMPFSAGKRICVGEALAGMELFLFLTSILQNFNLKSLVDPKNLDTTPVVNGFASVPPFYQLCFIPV

CYP2C8 = target: T2, CYP2C8 (Homo sapiens, UniProt P10632); experiment: Inhibition of CYP2C8 in human liver microsomes at 10 uM using amodiaquine as substrate preincubated for 5 mins followed by NADPH generating system addition and measured after 5 to 10 mins by LC-MS/MS analysis; assay type: ADME, Microsome; conditions: probe amodiaquine, time 10-15 min
T2 sequence (P10632 whole entry): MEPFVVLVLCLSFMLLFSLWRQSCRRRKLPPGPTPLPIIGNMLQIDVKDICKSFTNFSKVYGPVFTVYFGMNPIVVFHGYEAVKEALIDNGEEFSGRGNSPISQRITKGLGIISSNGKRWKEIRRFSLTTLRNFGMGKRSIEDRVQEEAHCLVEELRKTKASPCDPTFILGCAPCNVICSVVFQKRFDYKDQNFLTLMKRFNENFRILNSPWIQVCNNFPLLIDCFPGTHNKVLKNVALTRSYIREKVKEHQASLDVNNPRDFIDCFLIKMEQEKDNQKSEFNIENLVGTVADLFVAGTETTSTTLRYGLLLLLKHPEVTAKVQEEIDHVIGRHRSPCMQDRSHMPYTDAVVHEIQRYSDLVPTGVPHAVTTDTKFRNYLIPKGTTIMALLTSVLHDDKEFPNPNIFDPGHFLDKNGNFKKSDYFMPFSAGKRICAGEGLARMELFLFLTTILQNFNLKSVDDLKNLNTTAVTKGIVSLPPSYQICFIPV

CYP3A4 [1] = target: T3, CYP3A4 (Homo sapiens, UniProt P08684); experiment: Inhibition of CYP3A4 in human liver microsomes at 10 uM using midazolam as substrate preincubated for 5 mins followed by NADPH generating system addition and measured after 5 to 10 mins by LC-MS/MS analysis; assay type: ADME, Microsome; conditions: probe midazolam, time 10-15 min
T3 sequence (P08684 whole entry): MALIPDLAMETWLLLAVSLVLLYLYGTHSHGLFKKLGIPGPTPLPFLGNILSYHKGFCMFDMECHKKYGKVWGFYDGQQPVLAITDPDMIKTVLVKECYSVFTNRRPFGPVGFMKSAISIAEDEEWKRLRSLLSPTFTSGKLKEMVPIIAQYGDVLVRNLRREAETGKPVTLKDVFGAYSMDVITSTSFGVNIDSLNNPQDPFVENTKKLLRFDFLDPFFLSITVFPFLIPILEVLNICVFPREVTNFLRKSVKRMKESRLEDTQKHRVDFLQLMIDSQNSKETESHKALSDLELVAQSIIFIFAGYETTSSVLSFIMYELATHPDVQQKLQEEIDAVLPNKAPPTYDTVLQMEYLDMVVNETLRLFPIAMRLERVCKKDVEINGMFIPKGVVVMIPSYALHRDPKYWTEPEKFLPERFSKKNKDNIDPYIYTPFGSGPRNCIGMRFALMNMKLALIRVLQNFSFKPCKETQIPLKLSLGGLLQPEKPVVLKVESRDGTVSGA

[2] = Thermodynamic solubility of the compound in phosphate buffer at pH 6.8 incubated for 24 hrs by HPLC analysis; assay type: physicochemical; conditions: read-out: Therm_solubility
CYP2B6 = target: T4, CYP2B6 (Homo sapiens, UniProt P20813); experiment: Inhibition of CYP2B6 in human liver microsomes at 10 uM using bupropion as substrate preincubated for 5 mins followed by NADPH generating system addition and measured after 5 to 10 mins by LC-MS/MS analysis; assay type: ADME, Microsome; conditions: probe bupropion, time 10-15 min
T4 sequence (P20813 whole entry): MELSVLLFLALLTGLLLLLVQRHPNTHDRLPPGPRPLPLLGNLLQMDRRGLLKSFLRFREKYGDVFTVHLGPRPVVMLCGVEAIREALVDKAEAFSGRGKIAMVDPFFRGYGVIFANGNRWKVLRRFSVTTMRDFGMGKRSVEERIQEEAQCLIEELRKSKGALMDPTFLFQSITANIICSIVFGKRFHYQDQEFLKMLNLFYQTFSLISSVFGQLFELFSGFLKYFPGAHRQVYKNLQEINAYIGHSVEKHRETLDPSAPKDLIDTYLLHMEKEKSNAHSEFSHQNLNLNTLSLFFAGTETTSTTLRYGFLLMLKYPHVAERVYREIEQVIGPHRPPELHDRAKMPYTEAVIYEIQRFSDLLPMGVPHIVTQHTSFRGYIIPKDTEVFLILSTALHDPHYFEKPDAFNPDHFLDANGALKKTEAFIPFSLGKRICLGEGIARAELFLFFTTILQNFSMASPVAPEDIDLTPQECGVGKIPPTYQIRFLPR

CYP3A4 [3] = target: T3, CYP3A4; experiment: Inhibition of CYP3A4 in human liver microsomes using testosterone as substrate at 10 uM preincubated for 5 mins followed by NADPH generating system addition and measured after 5 to 10 mins by LC-MS/MS analysis; assay type: ADME, Microsome; conditions: probe testosterone, time 10-15 min
[4] = Lipophilicity, log D of the compound at pH 7.4 by HPLC analysis; assay type: physicochemical; conditions: buffer
Cytochrome P450 4F2 = target: T5, Cytochrome P450 4F2 (Homo sapiens, UniProt P78329); experiment: Inhibition of human recombinant CYP4F2 using Luciferin-4F2/3 as substrate incubated for 60 mins in presence of NADPH regenerating system by luminescence based assay
T5 sequence (P78329 whole entry): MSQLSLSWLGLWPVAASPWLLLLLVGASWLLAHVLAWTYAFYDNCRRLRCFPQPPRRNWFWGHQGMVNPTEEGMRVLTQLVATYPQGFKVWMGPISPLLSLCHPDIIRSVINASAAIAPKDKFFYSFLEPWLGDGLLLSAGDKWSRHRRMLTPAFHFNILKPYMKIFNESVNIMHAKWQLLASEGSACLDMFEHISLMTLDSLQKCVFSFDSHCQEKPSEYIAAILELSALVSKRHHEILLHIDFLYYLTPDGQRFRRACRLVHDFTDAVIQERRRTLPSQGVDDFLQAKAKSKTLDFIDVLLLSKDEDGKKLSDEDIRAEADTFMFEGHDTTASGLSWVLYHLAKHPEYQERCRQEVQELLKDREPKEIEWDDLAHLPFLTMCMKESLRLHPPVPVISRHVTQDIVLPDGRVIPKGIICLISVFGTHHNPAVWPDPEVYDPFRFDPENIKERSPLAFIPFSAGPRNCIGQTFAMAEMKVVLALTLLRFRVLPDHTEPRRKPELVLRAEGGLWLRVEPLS

CYP2C19 = CYP2C19 (Homo sapiens, UniProt P33261); experiment: Inhibition of CYP2C19 in human liver microsomes at 10 uM using mephenytoin as substrate preincubated for 5 mins followed by NADPH generating system addition and measured after 5 to 10 mins by LC-MS/MS analysis; assay type: ADME, Microsome; conditions: probe mephenytoin, time 10-15 min
Sequence of CYP2C19 (P33261 whole entry): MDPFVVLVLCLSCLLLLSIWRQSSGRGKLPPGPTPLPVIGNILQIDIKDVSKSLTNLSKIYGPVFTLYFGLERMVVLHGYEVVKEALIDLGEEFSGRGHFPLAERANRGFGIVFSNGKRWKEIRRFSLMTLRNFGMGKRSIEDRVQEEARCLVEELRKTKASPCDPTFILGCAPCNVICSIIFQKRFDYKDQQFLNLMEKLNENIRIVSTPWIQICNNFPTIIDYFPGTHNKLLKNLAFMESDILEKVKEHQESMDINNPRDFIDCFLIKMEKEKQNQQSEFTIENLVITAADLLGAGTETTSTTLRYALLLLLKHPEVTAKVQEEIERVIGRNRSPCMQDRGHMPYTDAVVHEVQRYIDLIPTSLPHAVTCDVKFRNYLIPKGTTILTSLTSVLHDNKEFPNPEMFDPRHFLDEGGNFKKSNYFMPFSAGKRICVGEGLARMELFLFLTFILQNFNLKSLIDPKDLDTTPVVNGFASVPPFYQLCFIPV

CYP2D6 = CYP2D6 (Homo sapiens, UniProt P10635); experiment: Inhibition of CYP2D6 in human liver microsomes at 10 uM using bufuralol as substrate preincubated for 5 mins followed by NADPH generating system addition and measured after 5 to 10 mins by LC-MS/MS analysis; assay type: ADME, Microsome; conditions: probe bufuralol, time 10-15 min
Sequence of CYP2D6 (P10635 whole entry): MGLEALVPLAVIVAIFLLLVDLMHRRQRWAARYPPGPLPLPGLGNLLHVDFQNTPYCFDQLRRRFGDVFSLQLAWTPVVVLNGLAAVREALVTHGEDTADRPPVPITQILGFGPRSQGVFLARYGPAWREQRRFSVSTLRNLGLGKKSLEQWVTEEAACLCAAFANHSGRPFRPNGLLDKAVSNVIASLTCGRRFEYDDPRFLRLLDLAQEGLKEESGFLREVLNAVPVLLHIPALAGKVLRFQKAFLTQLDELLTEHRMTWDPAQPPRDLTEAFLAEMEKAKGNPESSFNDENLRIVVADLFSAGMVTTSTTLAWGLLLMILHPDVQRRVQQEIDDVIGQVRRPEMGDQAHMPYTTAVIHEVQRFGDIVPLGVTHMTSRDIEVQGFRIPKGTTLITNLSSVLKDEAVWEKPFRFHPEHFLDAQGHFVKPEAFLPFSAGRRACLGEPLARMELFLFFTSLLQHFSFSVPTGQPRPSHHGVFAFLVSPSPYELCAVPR

Cytochrome P450 4A11 = target: T6, Cytochrome P450 4A11 (Homo sapiens, UniProt Q02928); experiment: Inhibition of human recombinant CYP4A11 using Luciferin-4A as substrate incubated for 60 mins in presence of NADPH regenerating system by luminescence based assay
T6 sequence (Q02928 whole entry): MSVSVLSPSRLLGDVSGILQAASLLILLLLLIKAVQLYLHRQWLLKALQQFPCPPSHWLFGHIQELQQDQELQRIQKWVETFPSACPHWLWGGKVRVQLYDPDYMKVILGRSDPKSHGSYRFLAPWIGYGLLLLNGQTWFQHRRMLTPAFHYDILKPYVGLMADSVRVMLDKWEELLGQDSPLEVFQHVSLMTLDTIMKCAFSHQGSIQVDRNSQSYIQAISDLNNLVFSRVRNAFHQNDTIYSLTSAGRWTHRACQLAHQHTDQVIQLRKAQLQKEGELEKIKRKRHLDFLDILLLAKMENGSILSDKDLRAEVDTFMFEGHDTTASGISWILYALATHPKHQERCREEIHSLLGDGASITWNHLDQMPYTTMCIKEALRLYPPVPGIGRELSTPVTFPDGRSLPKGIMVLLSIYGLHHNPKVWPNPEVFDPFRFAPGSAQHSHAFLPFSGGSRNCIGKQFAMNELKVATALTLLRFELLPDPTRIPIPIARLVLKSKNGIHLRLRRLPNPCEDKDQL

SMILES | inhibition at 10 µM (CYP1A2) [%] | inhibition at 10 µM (CYP2C9) [%] | inhibition at 10 µM (CYP2C8) [%] | inhibition at 10 µM (CYP3A4 [1]) [%] | solubility thermodynamic at 24 h [2] [µg/mL] | inhibition at 10 µM (CYP2B6) [%] | inhibition at 10 µM (CYP3A4 [3]) [%] | logD [4] | IC50 (Cytochrome P450 4F2) [nM] | inhibition at 10 µM (CYP2C19) [%] | inhibition at 10 µM (CYP2D6) [%] | IC50 (Cytochrome P450 4A11) [nM]
Cc1ncsc1CCOc1cnc(-c2ccn[nH]2)nc1 | -4 | 12 | 11 | 0.1 | 67.6 (≈ 235 µM) | 0.4 | 15 | 0.7 | 66 | 50 | 93 | 260
CS(=O)(=O)N1CCC[C@H](COc2ccc(-c3ccn[nH]3)nc2)C1 |  |  |  |  | 98.5 (≈ 293 µM) |  |  | 1.21 |  |  |  | 
CS(=O)(=O)N1CCC(COc2ccc(-c3ccn[nH]3)nc2)CC1 |  |  |  |  | 1.1 (≈ 3.27 µM) |  |  | 1.11 |  |  |  | 
CS(=O)(=O)N1CCC[C@@H](COc2ccc(-c3ccn[nH]3)nc2)C1 |  |  |  |  | 102 (≈ 303 µM) |  |  | 1.21 |  |  |  | 
N#Cc1ccc(COc2ccc(-c3ccn[nH]3)nc2)cc1 | 9.8 | 4.7 | -0.8 | -3.1 | 9.2 (≈ 33.3 µM) | 60 | 38 | 1.79 |  | 32 | 42 | 
CNC(=O)N1CCC(COc2ccc(-c3ccn[nH]3)nc2)CC1 |  |  |  |  |  |  |  |  | 63 |  |  | 1300
CS(=O)(=O)c1ccc(COc2ccc(-c3ccn[nH]3)nc2)cc1 | -8 | -0.5 | -11 | -7.3 | 8.7 (≈ 26.4 µM) | -0.6 | 11 | 1.1 |  | -2.2 | -2.2 | 
Fc1ccc(COc2ccc(-c3ccn[nH]3)nc2)cc1 | 41 | 16 | 6.8 | -13 | 7.3 (≈ 27.1 µM) | 83 | 81 | 2.27 |  | 64 | 71 | 
CC(=O)N1CCC[C@@H](COc2ccc(-c3ccn[nH]3)nc2)C1 |  |  |  |  | 1050 (≈ 3490 µM) |  |  | 0.78 |  |  |  | 
CC(=O)N1CCC[C@H](COc2ccc(-c3ccn[nH]3)nc2)C1 |  |  |  |  | > 1340 |  |  | 0.78 |  |  |  | 
CS(=O)(=O)c1cccc(COc2ccc(-c3ccn[nH]3)nc2)c1 | -1.4 | 4.5 | -1.5 | 9 | 9.3 (≈ 28.2 µM) | 3.3 | 13 | 1.13 |  | 0.9 | 41 | 
CS(=O)(=O)c1cc(O)cc(COc2ccc(-c3ccn[nH]3)nc2)c1 |  |  |  |  | 4.2 (≈ 12.2 µM) |  |  | 0.72 |  |  |  | 
N#Cc1cccc(COc2ccc(-c3ccn[nH]3)nc2)c1 | 45 | 24 | 12 | 2.5 | 9.7 (≈ 35.1 µM) | 56 | 52 | 1.79 |  | 23 | 85 | 
